US10800783B2, “CDK2/4/6 inhibitors” (Pfizer Inc., priority 2016, dated 2020)
Read-outs that look alike come from different tables or passages of the source.

Tests used:
[1] = target: T1, CDK6/Cyclin D1 (Homo sapiens (Human), UniProt Q00534); test: biochemical
[2] = target: T1, CDK6/Cyclin D1; conditions: read-out: CDK6_Ki; non-phosphorylated CDK6/Cyclin D1, 2 mM ATP
[3] = target: CDK2/Cyclin E1 (Homo sapiens (Human), UniProt P24941); test: biochemical
Method: The assay was initiated with the addition of ATP, following a fifteen minutes pre-incubation of enzyme and inhibitor at room temperature in the reaction mixture. The reaction was stopped after 45 minutes at room temperature by the addition of 50 μL of 80 mM EDTA, pH 7.5.

[4] = system: OVCAR3 mouse tumor xenograft; test: Ovcar3 tumor model (mouse xenograft); format: in vivo; conditions: NSG mice; 10 mpk PO QD, 50 mpk PO QD and 50 mpk PO BID, 14 days
Method: Ovcar3 tumor cell line, purchased from ATCC (ATCC HTB-161™) was cultured in RPMI1640 (1×) media (Gibco™ cat #11875-093) with 10% FBS (Gibco™ cat #26140-079). To establish a Ovcar3 xenograft model, 5×10^6 cells per mouse was implanted subcutaneously into right hind flank NSG mice (#5557-NOD.cg-PrkdcJackson Lab). Cells were suspended in 50% matrigel (Cultrex Basement Membrane Extract (BME), Trevigen's Basement Membrane Matrix) and 50% RPMI1640 (1×) media (Gibco™ cat #11875-093) serum free media prior to implantation.
Animals were randomized 39 days after cells implantation with each group consisted of 4 mice. Treatment began when tumors reached 100 mm^3-190 mm^3 in size. Test compounds were prepared in 40% Captisol and dosed PO at 10 and 50 mg/kg QD or at 50 mg/kg BID as a suspension for 14 days. Animals were taken down at designated time. Mice receiving no drugs were given vehicle QD or BID for 14 days. Tumor volumes were measured once prior to randomization with an electric caliper, with tumor volumes were calculated using Length×Width×Width/2 formulation. Tumor volumes were measured twice a week with an electric caliper, with tumor volumes calculated using Length×Width×Width/2 formula. Animal weights were recorded twice weekly.

[5] = system: HCC1806 mouse tumor xenograft; test: HCC1806 tumor model (mouse xenograft); format: in vivo; conditions: NU/NU female mice; 30, 50 and 75 mpk PO BID, 14 days
Method: • Source: HCC1806 (# CRL 2335, ATCC, Manassas, Va.)
The HCC1806 tumor cell line was cultured in RPMI1640 media supplemented with 10% Fetal Bovine Serum (FBS). To establish a HCC1806 xenograft model, 5×10^6 cells per mouse were implanted subcutaneously into right hind flank NU/NU female mice. Cells were suspended in 50% Cultrex Basement Membrane Extract and 50% RPMI 1640 media serum free media prior to implantation.
Animals were randomized 7 days after cells implantation with each group consisting of 13 mice. Treatment began when tumors reached 100 mm^3 to 170 mm^3 in size on Day 7. Test compounds were prepared in 0.1% Tween, 0.5% Methyl cellulose in water and dosed PO at 30, 50, and 75 mg/kg as a suspension BID for 14 days. Mice receiving no drugs were given vehicle BID for 14 days. Tumor volumes were measured twice a week with an electric caliper, with tumor volumes calculated using Length×Width×Width/2 formula. Animal weights were recorded twice weekly.

T1 sequence (Q00534 whole entry): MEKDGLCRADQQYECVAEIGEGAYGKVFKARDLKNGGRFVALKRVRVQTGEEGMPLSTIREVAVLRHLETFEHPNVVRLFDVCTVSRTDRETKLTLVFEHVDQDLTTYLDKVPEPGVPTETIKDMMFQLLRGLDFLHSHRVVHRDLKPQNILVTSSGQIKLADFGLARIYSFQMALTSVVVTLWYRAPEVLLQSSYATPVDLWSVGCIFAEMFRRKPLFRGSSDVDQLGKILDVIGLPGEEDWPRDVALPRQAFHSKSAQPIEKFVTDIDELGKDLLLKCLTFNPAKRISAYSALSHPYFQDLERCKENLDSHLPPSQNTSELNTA
T1 sequence (P24385 whole entry partner): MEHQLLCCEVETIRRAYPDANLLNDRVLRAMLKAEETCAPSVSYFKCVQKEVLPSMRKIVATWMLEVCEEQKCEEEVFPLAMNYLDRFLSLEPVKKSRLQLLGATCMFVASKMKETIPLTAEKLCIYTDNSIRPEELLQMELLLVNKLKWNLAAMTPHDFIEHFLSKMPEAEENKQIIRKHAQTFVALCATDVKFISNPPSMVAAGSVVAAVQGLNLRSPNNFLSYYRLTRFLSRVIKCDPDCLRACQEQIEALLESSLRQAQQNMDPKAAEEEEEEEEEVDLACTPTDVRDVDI

Cc1cc2cnc(NC3CCN(S(=O)(=O)NC[C@H]4CCCO4)CC3)nc2n([C@H]2CCC[C@]2(C)O)c1=O (stereo in doubt) [Example 103]
Ki [1]: 19.6 nM

C[C@@]1(O)CCC[C@H]1n1c(=O)ccc2cnc(NC3CCN(S(=O)(=O)C4CCS(=O)(=O)C4)CC3)nc21 (single isomer, unassigned) [Example 71]
Ki [2]: 1.55 nM

CNS(=O)(=O)N1CCC(Nc2ncc3ccc(=O)n([C@@H]4CCC[C@H]4O)c3n2)CC1 [Example 55]
Ki [3]: 4.66 nM

Cc1cc2cnc(NC3CCN(S(=O)(=O)NC[C@H]4CCCO4)CC3)nc2n([C@@H]2CCC[C@@]2(C)O)c1=O (stereo in doubt) [Example 102]
Ki [1]: 0.8 nM

C[C@@]1(O)CCC[C@H]1n1c(=O)ccc2cnc(NC3CCN(S(C)(=O)=O)CC3)nc21 [Example 2, 8-[(1R,2R)-2-hydroxy-2-methylcyclopentyl]-2-{[1-(methylsulfonyl)piperidin-4-yl]amino}pyrido[2,3-d]pyrimidin-7(8H)-one]
inhibition of tumor growth (mm^3) [4]: dose dependent inhibition of tumor growth | inhibition of tumor growth (mm^3) [5]: dose dependent inhibition of tumor growth

C[C@]1(O)CCC[C@@H]1n1c(=O)ccc2cnc(NC3CCN(S(=O)(=O)NC[C@H]4CCCO4)CC3)nc21 (stereo in doubt) [Example 65]
Ki [1]: 25.6 nM

C[C@@]1(O)CCC[C@H]1n1c(=O)ccc2cnc(NC3CCN(S(=O)(=O)NC[C@H]4CCCO4)CC3)nc21 (stereo in doubt) [Example 64]
Ki [1]: 4.69 nM

C[C@@]1(O)CCC[C@H]1n1c(=O)ccc2cnc(NC3CCN(S(=O)(=O)NC[C@@H]4CCCO4)CC3)nc21 (stereo in doubt) [Example 62]
Ki [1]: 5.69 nM

Cc1cc2cnc(NC3CCN(S(=O)(=O)NC[C@@H]4CCCO4)CC3)nc2n([C@@H]2CCC[C@@]2(C)O)c1=O (stereo in doubt) [Example 100]
Ki [1]: 1.07 nM

C[C@]1(O)CCC[C@@H]1n1c(=O)ccc2cnc(NC3CCN(S(=O)(=O)NC[C@@H]4CCCO4)CC3)nc21 (stereo in doubt) [Example 63]
Ki [1]: 16.5 nM

Cc1cc2cnc(NC3CCN(S(=O)(=O)NC[C@@H]4CCCO4)CC3)nc2n([C@H]2CCC[C@]2(C)O)c1=O (stereo in doubt) [Example 101]
Ki [1]: 23.5 nM
